Laboratory results reported in US5104888A, “Thiazolidine derivatives, their preparation and use” (Sankyo Company, Limited, priority 1985, dated 1992).

How the values were obtained:
[1] = molecular target: T1, Aldose reductase (Bos taurus, UniProt P16116); test: Effect on Aldose Reductase (inhibition of enzyme activity, photometric); type: biochemical; conditions: 1×10^-5 M, aldose reductase partially purified from bovine lenses; read-out: Percent Inhibition of aldose reductase
T1 construct: Aldose reductase was separated and partially purified from bovine lenses; from tissue; host or cells: bovine lens
Procedure: Aldose reductase was separated and partially purified from bovine lenses by the method of Hayman and Kinoshita [J. Biol. Chem., 240, 877 (1965)]. Enzyme activities were photometrically determined by the method of Varma et al. [Biochem, Pharmac., 25, 2505 (1976)].
The inhibition of aldose reductase activity was determined employing each test compound in a concentration of 1×10^-5 M, and the results are as shown in Table 30.
As a control, the known compound, 5-[4-(1-methylcyclohexylmethoxy)benzyl]thiazolidine-2,4-dione ("Cpd. A") was tested by the same method and the result is also shown in Table 30: […]

[2] = tested on: male mice of the ddY strain; test: Toxicity (acute oral, one-week observation); type: in vivo
Procedure: The test animals used were male mice of the ddY strain. The animals were employed in groups of 3. The animals of each group were administered orally with a single test compound in a dose of 300 mg/kg body weight. The compounds employed were those prepared as described in Examples 3, 4, 5 and 13.

[3] = oral, 300 mg/kg body weight, male ddY mice, groups of 3, 1 week

inhibition at 10 µM [1] [%] | Compound | abnormalities attributable to the test compounds during observation [2, 3] | survival at the end of the 1 week observation period [2, 3] | other results
16.2 | CC1(COc2ccc(CC3SC(=O)NC3=O)cc2)CCCCC1 (stereo not drawn) [Cpd. A, 5-[4-(1-methylcyclohexylmethoxy)benzyl]thiazolidine-2,4-dione, reference compound] |  |  | 
 | CCCCCCCCC1(COc2ccc(CC3SC(=O)NC3=O)cc2)CCc2c(C)c(O)c(C)c(C)c2O1 (stereo not drawn) [Example 3, 5-[4-(6-Hydroxy-5,7,8-trimethyl-2-octylchroman-2-yl-methoxy)benzyl]thiazolidine-2,4-dione] | no abnormalities | All animals were alive | 
 | CC(=O)Oc1cc2c(cc1C(C)(C)CC(C)(C)C)OC(C)(COc1ccc(CC3SC(=O)NC3=O)cc1)CC2 (stereo not drawn) [Example 4, 5-[4-(6-Acetoxy-2-methyl-7-(1,1,3,3-tetramethylbutyl)-chroman-2-ylmethoxy)benzyl]thiazolidine-2,4dione] | no abnormalities | All animals were alive | 
 | CC(C)(C)CC(C)(C)c1cc2c(cc1O)CCC(C)(COc1ccc(CC3SC(=O)NC3=O)cc1)O2 (stereo not drawn) [Example 5, 5-{4-[6Hydroxy-2-methyl-7-(1,1,3,3-tetramethylbutyl)-chroman-2-ylmethoxy]benzyl}thiazolidine-2,4-dione] | no abnormalities | All animals were alive | 
51.6 | Cc1c(C)c2c(c(C)c1OCC(=O)O)CCC(C)(COc1ccc(CC3SC(=O)NC3=O)cc1)O2 (stereo not drawn) [Example 58, α-{2-[4-(2,4-Dioxothiazolidin-5-ylmethyl)phenoxymethyl]-2,5,7,8-tetramethylchroman-6yloxy}acetic acid] |  |  | 
79.5 | Cc1c(C)c2c(c(C)c1OCC(=O)O)C(=O)CC(C)(COc1ccc(CC3SC(=O)NC3=O)cc1)O2 (stereo not drawn) [Example 59, α-{2-[4-(2,4-Dioxothiazolidin-5-ylmethyl)-phenoxymethyl]-2,5,7,8-tetramethyl-4-oxochroman-6-yloxy}acetic acid] |  |  | 

Compound | inhibition at 10 µM [1] [%] | abnormalities attributable to the test compounds during observation [2, 3] | survival at the end of the 1 week observation period [2, 3] | other results
Cc1c(C)c2c(c(C)c1O)/C(=N/O)CC(C)(COc1ccc(CC3SC(=O)NC3=O)cc1)O2 (stereo not drawn) [Example 13, 5-{4-[6-Hydroxy-4-(E)-hydroxyimino-2,5,7,8-tetramethylchroman-2-ylmethoxy]benzyl}thiazolidine-2,4-dione] | 55.5 |  |  | abnormalities attributable to the test compounds during observation ([2]; mouse, in vivo, po, 300 mg/kg): no abnormalities; survival at the end of the 1 week observation period ([2]; mouse, in vivo, po, 300 mg/kg): All animals were alive
